Data taken from PMC7998700, “Mycobacterial Epoxide Hydrolase EphD Is Inhibited by Urea and Thiourea Derivatives” (International Journal of Molecular Sciences, 2021).

Key:
[1] = target: T1, EphF (Mycobacterium tuberculosis, UniProt P96811); test: radio-TLC epoxide hydrolase assay, E. coli lysate supernatant; assay type: biochemical; conditions: substrate [14C]-9,10-cis-epoxystearic acid; 50 mM Tris-HCl pH 7.5, 37 °C, 15 min; without EthA; 2% DMSO
[2] = target: T2, EphD (Mycobacterium tuberculosis, UniProt P9WGS3); test: as above; assay type: biochemical; conditions: substrate [14C]-9,10-cis-epoxystearic acid; 50 mM Tris-HCl pH 7.5, 37 °C, 15 min; without EthA; 2% DMSO
T2 sequence (P9WGS3 whole entry): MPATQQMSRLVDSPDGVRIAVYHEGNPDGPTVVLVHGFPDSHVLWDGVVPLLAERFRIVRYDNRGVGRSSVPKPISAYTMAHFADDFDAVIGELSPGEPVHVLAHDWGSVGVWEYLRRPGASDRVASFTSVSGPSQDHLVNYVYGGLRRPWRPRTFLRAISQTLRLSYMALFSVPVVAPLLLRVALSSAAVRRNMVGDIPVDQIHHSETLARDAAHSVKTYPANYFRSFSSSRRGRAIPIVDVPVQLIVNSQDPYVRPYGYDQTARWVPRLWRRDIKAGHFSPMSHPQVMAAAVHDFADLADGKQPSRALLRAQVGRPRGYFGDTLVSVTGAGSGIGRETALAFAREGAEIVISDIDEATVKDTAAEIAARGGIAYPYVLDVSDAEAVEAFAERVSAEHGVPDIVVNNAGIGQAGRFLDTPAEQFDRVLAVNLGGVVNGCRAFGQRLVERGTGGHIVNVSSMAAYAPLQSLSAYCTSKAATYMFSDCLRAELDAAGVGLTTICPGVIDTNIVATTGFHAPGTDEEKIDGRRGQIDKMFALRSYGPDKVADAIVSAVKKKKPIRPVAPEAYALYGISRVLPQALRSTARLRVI

[3] = target: EphB (Mycobacterium tuberculosis, UniProt I6YC03); test: radio-TLC substrate conversion to diol, E. coli lysate supernatant; assay type: biochemical; conditions: 50 mM Tris-HCl pH 7.5, 37 °C; labelled compound
Chain of EphB (I6YC03 whole entry): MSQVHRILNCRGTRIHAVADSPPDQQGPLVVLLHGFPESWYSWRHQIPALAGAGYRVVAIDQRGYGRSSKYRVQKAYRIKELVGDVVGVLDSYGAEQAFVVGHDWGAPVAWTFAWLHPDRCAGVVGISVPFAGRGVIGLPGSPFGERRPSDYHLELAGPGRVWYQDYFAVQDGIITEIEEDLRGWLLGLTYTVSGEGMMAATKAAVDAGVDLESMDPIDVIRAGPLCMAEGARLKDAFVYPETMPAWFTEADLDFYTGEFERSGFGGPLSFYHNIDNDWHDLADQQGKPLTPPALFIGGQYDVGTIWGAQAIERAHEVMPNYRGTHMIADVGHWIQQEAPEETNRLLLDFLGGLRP

[4] = target: EphG (Mycobacterium tuberculosis, UniProt O33283)
Chain of EphG (O33283 whole entry): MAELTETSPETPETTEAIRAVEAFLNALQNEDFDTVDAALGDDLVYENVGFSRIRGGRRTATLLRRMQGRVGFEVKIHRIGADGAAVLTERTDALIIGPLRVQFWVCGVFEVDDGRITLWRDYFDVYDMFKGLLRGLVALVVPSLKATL

[5] = target: EphA (Mycobacterium tuberculosis, UniProt I6YGS0)
Chain of EphA (I6YGS0 whole entry): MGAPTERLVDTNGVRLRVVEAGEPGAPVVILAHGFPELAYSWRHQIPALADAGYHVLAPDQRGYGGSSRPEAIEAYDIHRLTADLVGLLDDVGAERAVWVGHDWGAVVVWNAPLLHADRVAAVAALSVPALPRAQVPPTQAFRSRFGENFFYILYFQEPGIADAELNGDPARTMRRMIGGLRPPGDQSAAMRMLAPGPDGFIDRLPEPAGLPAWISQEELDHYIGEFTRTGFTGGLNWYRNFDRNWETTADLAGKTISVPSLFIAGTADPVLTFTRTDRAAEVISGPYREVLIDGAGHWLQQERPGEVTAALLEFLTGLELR

[6] = target: T1, EphF
[7] = target: T2, EphD
[8] = target: EphE (Mycobacterium tuberculosis, UniProt I6YCQ4)
Chain of EphE (I6YCQ4 entry or part of it): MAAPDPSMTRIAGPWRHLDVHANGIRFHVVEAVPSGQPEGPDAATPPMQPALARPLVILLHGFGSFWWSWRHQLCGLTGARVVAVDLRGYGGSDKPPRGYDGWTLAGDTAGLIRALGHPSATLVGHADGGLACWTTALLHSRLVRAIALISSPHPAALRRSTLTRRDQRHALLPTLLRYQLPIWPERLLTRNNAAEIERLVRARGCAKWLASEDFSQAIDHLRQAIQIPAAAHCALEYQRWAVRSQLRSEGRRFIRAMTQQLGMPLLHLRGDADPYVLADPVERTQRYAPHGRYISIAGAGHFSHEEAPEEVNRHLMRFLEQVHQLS

T1 sequence (P96811 entry or part of it): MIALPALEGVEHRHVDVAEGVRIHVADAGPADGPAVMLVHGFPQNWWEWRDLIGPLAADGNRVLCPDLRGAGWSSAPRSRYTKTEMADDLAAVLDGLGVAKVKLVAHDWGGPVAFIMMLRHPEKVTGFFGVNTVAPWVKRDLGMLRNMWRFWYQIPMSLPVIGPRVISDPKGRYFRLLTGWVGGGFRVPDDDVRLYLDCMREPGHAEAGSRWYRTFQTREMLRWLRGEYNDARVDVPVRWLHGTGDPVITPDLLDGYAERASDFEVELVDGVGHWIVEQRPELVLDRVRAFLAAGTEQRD

## CC(C)CCOc1ccc(NC(=S)Nc2ccc(OCCC(C)C)cc2)cc1 [ISO, 4,4′-diisoamyloxydiphenylthiourea]
[1]
  % inhibition at 10 μg/mL: The activities of EphD and EphF are inhibited by ISO
[2]
  % inhibition at 10 μg/mL: The activities of EphD and EphF are inhibited by ISO

## CCCCCCCC[C@H]1O[C@H]1CCCCCCCC(=O)O [9,10-cis-epoxystearic acid]
[3]
  radio-TLC substrate conversion to diol, E. coli lysate supernatant: The EH activity in each reaction was expressed as a substrate conversion percentage
[4]
  radio-TLC substrate conversion to diol, E. coli lysate supernatant: The EH activity in each reaction was expressed as a substrate conversion percentage
[5]
  radio-TLC substrate conversion to diol, E. coli lysate supernatant: The EH activity in each reaction was expressed as a substrate conversion percentage
[6]
  radio-TLC substrate conversion to diol, E. coli lysate supernatant: The EH activity in each reaction was expressed as a substrate conversion percentage
[7]
  radio-TLC substrate conversion to diol, E. coli lysate supernatant: The EH activity in each reaction was expressed as a substrate conversion percentage
[8]
  radio-TLC substrate conversion to diol, E. coli lysate supernatant: The EH activity in each reaction was expressed as a substrate conversion percentage
